Results as given in US20220348565A1, “PHARMACEUTICAL COMPOUNDS” (SENTINEL ONCOLOGY LIMITED, priority 2019, published 2022).

Experiments:
[1] = Gravimetric solubility in water; assay type: physicochemical; conditions: thermodynamic from solid; gravimetric, water
Method: The solubility in water of the salts was measured using a gravimetric solubility protocol.
(§1) 1 ml of water was charged into crystallisation tubes. The solid was weighed into a tared glass vial, added in portions to the solutions and the vial weighed after each addition until a hazy solution was observed. The amount in mg was then calculated to give the solubility in mg/ml.
as §1, with “The solubility in water of the salts was measured using a gravimetric solubility protocol. Thus, 1” for “1”, “mg/mL.” for “mg/ml.”

[2] = system: panel of 48 cancer-derived cell lines; assay: Proliferation assay on diverse cancer cell line panel, CellTiter-Glo, 72 hours; assay type: cell-based; conditions: for IC50: 72 hours, listed as A-2
Method: Screening against diverse cancer cell lines was performed to identify tumour types displaying sensitivity to atropisomers A-1 and A-2. A panel of 48 cancer-derived cell lines was screened in a high-throughput proliferation assay using dilutions of atropisomers A-1/A-2. Cell lines that were screened included those representing cancer of the pancreas, large intestine/colorectum, lung, brain and nerves, and lymphoma and leukaemia cell lines. Cell lines were treated with serial half-log dilutions of compound and assayed 72 hours later for proliferation using CellTiter-Glo Assay (Promega). IC50 values were calculated by fitting the dose-response data using a nonlinear regression model.

[3] = system: U87MG cells; assay: Mitotic phenotype study in U87MG cells; assay type: cell-based, human; conditions: 0.03 μM, listed as A-2
Method: Distinct mitotic phenotypes are induced following inhibition of PLK1 and PLK4 in cells. […] Centriole assembly is controlled by PLK4, with inhibitors inducing a multipolar spindle phenotype due to centrosome defects which results in abnormal cyokinesis (Wong et al., 2015. Science 348(6239); 1155-1160). Cells were plated at 10 000/well in 96-well plates and incubated overnight. The following day atropisomer A-2 stocks in DMSO were diluted in medium then added to cells with a maximum final DMSO concentration on cells of 0.2%. Cells were incubated with the compound for 24 hours then fixed in 3.7% formaldehyde. Cells were permeabilised with 0.1% Triton X-100 then incubated with anti-phospho-histone H3 (Ser10) antibody (Abcam). The cells were washed with PBS then incubated with AlexaFluor 488 labelled goat anti-rabbit IgG (Invitrogen) in the presence of 4 ug/mL Hoechst 33342 (Invitrogen). Cells were washed in PBS then imaged on an Arrayscan VTi HCS instrument using the Target Activation V4 Bioapplication. A user-defined threshold was applied to identify mitotic cells based on the intensity of phospho-histone H3 staining. In a separate study, following the above protocol and using single compound concentrations of 0.03 μM for each of atropisomer A-1 and atropisomer A-2, the frequency of observed mitotic phenotypes in U87MG cells was manually assessed and classified into the following phenotypes: non-congressed chromosomes, multipolar spindles/abnormal cytokinesis, monopolar spindles, normal prometaphase, normal metaphase for each of A-1 and A-2.

[4] = molecular target: T1, panel of ninety-seven kinases (Homo sapiens, UniProt Q15303); assay: DiscoverX KinomeScreen kinase selectivity competition binding assay; conditions: ERBB4; read-out: % Ctrl @ 3 μM
T1 construct: purchased DiscoverX; host or cells: T7 phage in E. coli (BL21-derived) for most kinases; HEK-293 for the rest
T1 sequence (Q15303 26-1308): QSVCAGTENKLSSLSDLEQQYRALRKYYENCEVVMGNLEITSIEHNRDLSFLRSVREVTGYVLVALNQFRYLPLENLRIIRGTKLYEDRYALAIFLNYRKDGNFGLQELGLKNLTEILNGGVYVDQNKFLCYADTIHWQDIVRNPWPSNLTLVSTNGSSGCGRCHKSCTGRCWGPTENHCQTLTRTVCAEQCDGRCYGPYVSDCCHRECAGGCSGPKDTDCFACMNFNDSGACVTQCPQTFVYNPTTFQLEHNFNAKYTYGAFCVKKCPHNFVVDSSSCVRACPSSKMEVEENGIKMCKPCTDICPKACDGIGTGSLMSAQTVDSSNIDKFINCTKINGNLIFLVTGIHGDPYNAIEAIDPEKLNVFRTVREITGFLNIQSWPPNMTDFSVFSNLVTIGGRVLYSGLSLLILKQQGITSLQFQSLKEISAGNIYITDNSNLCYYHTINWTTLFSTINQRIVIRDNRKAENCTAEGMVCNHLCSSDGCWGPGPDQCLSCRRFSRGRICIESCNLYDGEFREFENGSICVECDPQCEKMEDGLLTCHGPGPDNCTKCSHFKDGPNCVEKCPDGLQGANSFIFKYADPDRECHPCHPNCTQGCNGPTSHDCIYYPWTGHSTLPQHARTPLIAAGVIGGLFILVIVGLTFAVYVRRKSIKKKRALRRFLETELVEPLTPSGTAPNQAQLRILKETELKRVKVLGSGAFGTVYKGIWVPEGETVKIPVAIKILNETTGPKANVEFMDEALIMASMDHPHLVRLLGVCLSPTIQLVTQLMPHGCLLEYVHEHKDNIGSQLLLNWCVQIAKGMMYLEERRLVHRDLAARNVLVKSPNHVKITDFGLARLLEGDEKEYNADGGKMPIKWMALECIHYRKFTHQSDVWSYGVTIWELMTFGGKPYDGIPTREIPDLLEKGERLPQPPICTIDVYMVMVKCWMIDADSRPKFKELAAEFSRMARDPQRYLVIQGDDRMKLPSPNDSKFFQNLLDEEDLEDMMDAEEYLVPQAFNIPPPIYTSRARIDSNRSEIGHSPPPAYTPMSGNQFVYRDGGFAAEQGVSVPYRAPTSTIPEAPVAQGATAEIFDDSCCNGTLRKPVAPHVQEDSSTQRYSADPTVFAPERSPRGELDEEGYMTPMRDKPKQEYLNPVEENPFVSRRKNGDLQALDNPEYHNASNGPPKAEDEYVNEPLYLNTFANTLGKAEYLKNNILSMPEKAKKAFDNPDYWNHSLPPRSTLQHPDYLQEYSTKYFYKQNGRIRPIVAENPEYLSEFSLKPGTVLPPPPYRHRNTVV
Method: (§2) Atropisomer A-2 has been tested for off-target activity against a panel of ninety-seven kinases distributed across the kinome at a concentration of 3 μM using the DiscoverX KinomeScreen assay. The DiscoverX KinomeScreen assay is a site-directed competition binding assay which measures the binding affinity of a compound to a kinase, by use of a solid supported control compound which can bind or capture the kinases in solution. In the absence of a kinase-inhibitor test compound, all of the kinase will bind to the solid support. If a kinase-inhibitor test compound is added to the assay mix, the amount of kinase binding to the solid support will be reduced, the extent of reduction being dependent on the potency of the test compound as a kinase inhibitor. […] For most assays, kinase-tagged T7 phage strains were grown in parallel in 24-well blocks in an E. coli host derived from the BL21 strain. E. coli were grown to log-phase and infected with T7 phage from a frozen stock (multiplicity of infection=0.4) and incubated with shaking at 32° C. until lysis (90-150 minutes). The lysates were centrifuged (6,000×g) and filtered (0.2 μm) to remove cell debris. The remaining kinases were produced in HEK-293 cells and subsequently tagged with DNA for qPCR detection. Streptavidin-coated magnetic beads were treated with biotinylated small molecule ligands for 30 minutes at room temperature to generate affinity resins for kinase assays. The liganded beads were blocked with excess biotin and washed with blocking buffer (SeaBlock (Pierce), 1% BSA, 0.05% Tween 20, 1 mM DTT) to remove unbound ligand and to reduce non-specific phage binding. […] Test compounds were prepared as 40× stocks in 100% DMSO and directly diluted into the assay. All reactions were performed in polypropylene 384-well plates in a final volume of 0.02 ml. […] The beads were then re-suspended in elution buffer (1×PBS, 0.05% Tween 20, 0.5 μM non-biotinylated affinity ligand) and incubated at room temperature with shaking for 30 minutes. The kinase concentration in the eluates was measured by qPCR. Compounds that bind the kinase active site and directly (sterically) or indirectly (allosterically) prevent kinase binding to the immobilized ligand, will reduce the amount of kinase captured on the solid support. […] The strength of binding of the test molecule to the kinase can be expressed as the percent control (% Ctrl) The compound(s) were screened at 3000 nM concentration, and results for primary screen binding interactions are reported as ‘% Ctrl’, where lower numbers indicate stronger hits in the matrix on the following page(s). [formula] • negative control=DMSO (100% Ctrl) • positive control=control compound (0% Ctrl)

[5] = molecular target: T2, panel of ninety-seven kinases (Homo sapiens, UniProt Q9H093); assay: as above; conditions: NUAK2; read-out: % Ctrl @ 3 μM
T2 construct: purchased DiscoverX; host or cells: T7 phage in E. coli (BL21-derived) for most kinases; HEK-293 for the rest
T2 sequence (Q9H093 whole entry): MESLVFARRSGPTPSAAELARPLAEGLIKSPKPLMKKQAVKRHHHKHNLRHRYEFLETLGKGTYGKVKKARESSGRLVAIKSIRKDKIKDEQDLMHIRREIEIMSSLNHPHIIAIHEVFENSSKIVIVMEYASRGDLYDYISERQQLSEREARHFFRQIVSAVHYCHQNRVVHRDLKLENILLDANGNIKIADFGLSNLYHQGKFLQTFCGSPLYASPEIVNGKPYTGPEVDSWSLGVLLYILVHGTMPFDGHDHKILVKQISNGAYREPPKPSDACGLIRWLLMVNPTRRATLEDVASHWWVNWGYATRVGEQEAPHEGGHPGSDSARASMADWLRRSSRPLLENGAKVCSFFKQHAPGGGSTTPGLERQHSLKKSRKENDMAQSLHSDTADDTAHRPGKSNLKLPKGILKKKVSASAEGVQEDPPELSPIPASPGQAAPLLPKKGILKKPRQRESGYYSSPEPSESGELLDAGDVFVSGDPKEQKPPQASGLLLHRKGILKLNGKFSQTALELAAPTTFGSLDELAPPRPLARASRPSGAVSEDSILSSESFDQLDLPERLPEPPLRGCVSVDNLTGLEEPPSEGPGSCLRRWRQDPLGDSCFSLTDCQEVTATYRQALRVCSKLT
Method: as §2

[6] = molecular target: T3, PLK1 catalytic domain (Homo sapiens, UniProt P53350); assay: DiscoverX KinomeScreen competition binding assay, PLK1; conditions: read-out: % Ctrl @ 3 μM
T3 construct: purchased DiscoverX; host or cells: T7 phage in E. coli (BL21-derived) or HEK-293
T3 sequence (P53350 53-305 limits assumed): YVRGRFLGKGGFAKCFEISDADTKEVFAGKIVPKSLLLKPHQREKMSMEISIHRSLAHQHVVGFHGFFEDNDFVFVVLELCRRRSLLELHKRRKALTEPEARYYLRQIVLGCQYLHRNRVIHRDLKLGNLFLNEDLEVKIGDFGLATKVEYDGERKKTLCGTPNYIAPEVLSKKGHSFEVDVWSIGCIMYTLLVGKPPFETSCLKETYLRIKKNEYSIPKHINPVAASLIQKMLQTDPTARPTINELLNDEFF
Method: (§3) Atropisomer A-2 has been tested for off-target activity against a panel of ninety-seven kinases distributed across the kinome at a concentration of 3 μM using the DiscoverX KinomeScreen assay. The DiscoverX KinomeScreen assay is a site-directed competition binding assay which measures the binding affinity of a compound to a kinase, by use of a solid supported control compound which can bind or capture the kinases in solution. In the absence of a kinase-inhibitor test compound, all of the kinase will bind to the solid support. If a kinase-inhibitor test compound is added to the assay mix, the amount of kinase binding to the solid support will be reduced, the extent of reduction being dependent on the potency of the test compound as a kinase inhibitor. […] For most assays, kinase-tagged T7 phage strains were grown in parallel in 24-well blocks in an E. coli host derived from the BL21 strain. […] The kinase concentration in the eluates was measured by qPCR. […] The strength of binding of the test molecule to the kinase can be expressed as the percent control (% Ctrl) The compound(s) were screened at 3000 nM concentration, and results for primary screen binding interactions are reported as ‘% Ctrl’, where lower numbers indicate stronger hits in the matrix on the following page(s). […]

[7] = molecular target: T4, PLK4 catalytic domain (Homo sapiens, UniProt O00444); assay: DiscoverX KinomeScreen competition binding assay, PLK4; conditions: read-out: % Ctrl @ 3 μM
T4 construct: purchased DiscoverX; host or cells: T7 phage in E. coli (BL21-derived) or HEK-293
T4 sequence (O00444 12-265 limits assumed): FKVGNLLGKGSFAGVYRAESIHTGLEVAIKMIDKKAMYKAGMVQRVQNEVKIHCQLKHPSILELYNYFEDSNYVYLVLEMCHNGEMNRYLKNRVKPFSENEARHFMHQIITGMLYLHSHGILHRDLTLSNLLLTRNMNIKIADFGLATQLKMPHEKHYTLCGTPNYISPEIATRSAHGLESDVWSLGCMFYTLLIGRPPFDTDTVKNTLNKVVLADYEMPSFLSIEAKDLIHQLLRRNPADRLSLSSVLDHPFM
Method: as §3

[8] = system: HCT116 xenograft tumours; assay: HCT116 subcutaneous xenograft model; assay type: in vivo, Male athymic nude mice; conditions: oral 100 mg/kg on days 1, 8 and 15; day 20
Method: Male athymic nude mice bearing HCT116 xenograft tumours were give an oral dose of 100 mg/kg atropisomer A-2 on days 1, 8 and 15 and the tumour volumes were measured over 3 weeks. Tumour volumes in a control group of tumour-bearing mice, who had received vehicle only at the same time points were also measured.

SMILES: CN(C)CCNC(=O)c1ccc(-c2ccc(-c3ccc(Cl)cc3)n2-c2ccccc2C(F)(F)F)cc1 (single isomer, unassigned) [Atropisomer A-2, 4-[5-(4-chlorophenyl)-1-[2-(trifluoromethyl)phenyl]pyrrol-2-yl]-N-[2-(dimethylamino)ethyl]benzamide]
- solubility [1]: < 5000 µg/mL
- IC50 ([2]; HOT 116, Large intestine/Colorectum): 230 nM
- IC50 ([2]; ML-2, Blood/Leukaemia): 180 nM
- IC50 ([2]; SVV620, Large intestine/Colorectum): 190 nM
- cell growth inhibition compared with atropisomer A-1 ([2]; all of the cell lines of the panel): significantly more active
- cells with abnormal cytokinesis [3]: 70%
- cells with non-congressed chromosomes [3]: 13%
- cells with normal mitotic phenotype [3]: 17%
- percent of control kinase binding to immobilized ligand at 3 µM [4]: 99%
- percent of control kinase binding to immobilized ligand at 3 µM [5]: 99%
- remaining binding at 3 µM [6]: 97%
- remaining binding at 3 µM [7]: 100%
- TGI [8]: 60%
